One compound from patent publication US8227448B2, “Nutritional composition with health promoting action containing oligosaccharides” (priority 2000, dated 2012) can be followed below.

This test has as its system EHEC binding to Caco2 cells. The experiment in a line: inhibition of pathogen (EHEC) binding to human colon cancer cells. The class given is cell-based. As to conditions: EHEC (2×10^8 cfu/ml) on Caco2 cells; test solution 5-10 mg/ml hydrolysed fibre; 1 h at 37° C.; cfu versus blank. The procedure:
Different oligosaccharides obtained by hydrolysis of fibres were used to measure inhibition of pathogen binding to human colon cancer cells. Cells for the binding experiment are grown under standard conditions. The growth medium is removed from the cells and 0.2 ml of minimal essential medium, 0.4 ml EHEC solution (2×10^8 cfu/ml) and 0.4 ml of test solution (5-10 mg/ml hydrolysed fibre) is added. Appropriate blanks are used as controls. Cells are incubated for an hour at 37° C., after which the medium is removed. The cells are washed five times with PBS buffer, lysed, homogenised, diluted and plated to count colony-forming units, following standard procedures. Comparison of the amount of cfu's found with the blank and with one of the fractions, the inhibiting power of the fraction can be calculated as percentage reduction in binding. The table below summarises results of binding reduction. […] All other oligosaccharides (non arabinose-containing) have lower than 60% binding reduction activity.

For the compound `OC[C@H]1O[C@@H](O[C@H]2[C@H](O)[C@@H](O)C(O)O[C@@H]2CO)[C@H](O)[C@@H](O)[C@H]1O` (stereo partly shown) [lactose], the “% binding reduction” value was determined as 28%.
